# Data published in US8299083B2, “PDE5 inhibitor compositions and methods for treating cardiac indications” (The Johns Hopkins University, priority 2004, dated 2012).
# Several values for one entry are separate records, joined by “and”; a condition that tells them apart may be missing. Equal values may be shown once.
# What was measured:
# [1] = test system: C57bl6 mice, isoproterenol-stimulated heart; assay: Acute isoproterenol-stimulated contractility in intact mice (pressure-volume relations); assay type: in vivo, mouse; settings: acute intravenous administration
# Procedure: Isoproterenol (ISO: 20 ng/kg/minutes i.v.×5 min) with or without PDE5A inhibitor was given to anesthetized intact mice, and in vivo heart function assessed by pressure-volume relations at a fixed atrial pacing rate of 600-650 min^−1. Data were measured at baseline, with ISO, re-baseline, PDE5A-inhibition, and PDE5A inhibition+ISO. The ISO-only response was highly reproducible.
# [2] = test system: myocardial cGMP; assay: Myocardial cyclic nucleotide levels; assay type: in vivo, mouse; settings: for whole myocardial cGMP: acute intravenous administration
# Text: Hearts were washed in ice-cold PBS, homogenized in 6% trichloroacetic acid, centrifuged and extracted with water-saturated ether. The aqueous layer was transferred, vacuum dried, and the pellet resuspended in sodium acetate buffer for cAMP and cGMP enzyme immunoassay (Amersham Pharmacia Biotech, Buckinghamshire, UK).
# [3] = test system: isolated adult murine myocytes; assay: Isoproterenol-stimulated contraction of isolated adult cardiac myocytes; assay type: cell-based, mouse; settings: ODQ plus sildenafil plus ISO
# Procedure: Louis, Mo.) for 6-7 min. Ventricles were gently chopped, filtered (150μ mesh), centrifuged (500 RPM×1 min), and rinsed in Tyrode's solution with increasing calcium (final 1.8 mM Ca^2+). Cells were incubated with 5 μM Indo-1 AM (Molecular Probes), rinsed, and studied at 27° C. by field stimulation in an inverted fluorescence microscope (Diaphot 200; Nikon, Inc). Sarcomere length (IonOptix, MA) and whole cell calcium transients were measured.
# [4] = human, cited from earlier work
# [5] = test system: PKG-1; assay: PKG-1 activity in isolated adult myocytes; assay type: cell-based, mouse
# Procedure: After 10 min, cells were lysed and PKG-1 activity determined.
# [6] = test system: total cGMP-esterase activity; assay: cGMP-esterase (low Km cGMP phosphodiesterase) activity of heart and isolated myocytes; assay type: biochemical, mouse
# [7] = target: purified PDE5A (Homo sapiens, UniProt O76074); settings: cited from earlier work
# [8] = test system: C57bl6 mice, isoproterenol-induced hypertrophy; assay: Chronic isoproterenol infusion (osmotic pump) cardiac hypertrophy; assay type: in vivo, mouse; settings: 2 weeks
# Procedure: Acute increases in cardiac chamber contractility were induced by isoproterenol infusion in control C57b16 mice. The increase in cardiac systolic function was assessed by in vivo pressure-volume relations (FIG. 11E), and is reflected by a widening of the loop and shift of the upper left corner to the left. […] This supports the myocyte effects at the intact heart level. Furthermore, if isoproterenol is infused chronically by means of an implanted osmotic mini-pump, the heart responds by increasing the cardiac mass (hypertrophy) and with some dilation. This is shown for a group of control C57b16 mice (FIGS. 12A and 12B).
# [9] = test system: C57BL/6 mice, pressure overload by transverse aortic constriction; assay: In vivo cardiac hemodynamics by pressure-volume analysis, TAC mice; design: species or system mouse; settings: 3 wk TAC, compared with sildenafil results
# Procedure: (§1) Pressure overload was produced by transverse aortic constriction.
# Transthoracic two-dimensional guided M-mode echocardiography was performed in non-anesthetized mice. Measurements were done using an echocardiography system, the SEQUOIA C256 (Siemens, Munich, Del.) with the 15 MHz linear-array transducer. Intact heart hemodynamic analysis was performed as described^90. These studies employed a four-electrode pressure-volume catheter (model SPR-839, Millar Instruments) placed through the left ventricular apex in the open chest anesthetized animal and positioned along the longitudinal axis to record chamber volume by impedance and pressure by micromanometry.
# All hemodynamic data were recorded using custom developed software, digitizing signals at 2 KHz. End-diastolic and end-systolic volumes were the average of volumes measured during isovolumic contraction and relaxation, respectively. ESP was the pressure at maximal chamber elastance (P/V ratio)^1. EDP was the diastolic pressure at the lower right hand corner of the pressure-volume loop. Cardiac output was determined from a perivascular flow probe (Transonics, Ithica, N.Y.) placed around the thoracic aorta. Ea was equal to the ratio of end-systolic pressure divided by stroke volume. The volume catheter signal was calibrated for both gain and offset. Gain was determined by setting the catheter-derived cardiac output (equal to pressure-volume loop width times heart rate) to that obtained from the calibrated flow probe value. Offset was determined using the hypertonic saline method Ventricular power was equal to the instantaneous product of pressure times flow, and the peak power was divided by EDV to obtain the power index PMXI^79. […] The slope of this relation Ees was normalized by heart mass and expressed per gm heart mass. Msw was derived from the linear relation between stroke work and EDV from the same set of variably loaded cardiac cycles used to derive Eesn, and is another load-independent assessment of systolic contractile function^4. Tau was obtained from the model: P=Po+ae^−t/□ . . . fitting data during isovolumic relaxation. dP/dt was derived from a digital filter (5-point weighted slope). PFR/EDV was derived from the maximal first derivative of the volume signal during early diastole, divided by EDV.
# [10] = test system: C57BL/6 mice, pressure overload by transverse aortic constriction; assay: TAC-induced cardiac hypertrophy, remodeling and fibrosis (heart weight/tibia length, histology); assay type: in vivo, mouse; settings: TAC mice, concurrent oral treatment
# Text: TAC induced marked heart chamber and cellular hypertrophy (+100% by 3-weeks) that progressed to chamber dilation with reduced fractional shortening after 9 weeks. […] TAC induced a time-dependent increase in myocardial fibrosis and myocyte hypertrophy and both were suppressed by PDE5A inhibition (FIG. 1C, e.g. 67% reduction in fibrosis in 9-week hearts, p<0.0001).
# as §1
# Hearts were fixed with 10% formalin overnight, then embedded in paraffin, sectioned at 5 μm thickness and stained with PAS methenamine. Cardiomyocyte diameter and interstitial collagen fraction were determined using computer-assisted image analysis (Adobe Photoshop 5.0, NIH Image J), with the observer blinded as to tissue source. At least 4-5 different hearts, with five separate fields of cells (total 50-70 cells for each heart) were quantified for cellular analysis.
# [11] = test system: ex vivo vascular rings; settings: cited from earlier work
# [12] = test system: fetal gene expression; assay: Cardiac fetal gene expression (RNA dot blot) in TAC hearts; assay type: in vivo, mouse; settings: 3 wk TAC
# Procedure: RNA samples were prepared from snap-frozen hearts using a ready-to-use reagent for the isolation of total RNA TRIZOL reagent (Life Technology, Gaithersburg, Md.) according to the manufacturer's protocol. RNA dot-blot analysis was performed using a published protocol with a set of oligonucleotide probes^59. Data are shown normalized to GAPDH measured for each respective sample.
# [13] = inhibitor combined with isoproterenol
smiles,measurement,setting,value
"CC[C@H](C)[C@@H]1NC(=O)[C@H](CCCNC(=N)N)NC(=O)[C@H](CC(=O)O)NC(=O)[C@H](CCSC)NC(=O)[C@H](CCCNC(=N)N)NC(=O)CNC(=O)CNC(=O)[C@H](Cc2ccccc2)NC(=O)[C@@H](NC(=O)[C@H](CO)NC(=O)[C@H](CO)NC(=O)[C@H](CCCNC(=N)N)NC(=O)[C@H](CCCNC(=N)N)NC(=O)[C@H](CC(C)C)NC(=O)[C@@H](N)CO)CSSC[C@@H](C(=O)N[C@@H](CC(N)=O)C(=O)N[C@@H](CO)C(=O)N[C@@H](Cc2ccccc2)C(=O)N[C@@H](CCCNC(=N)N)C(=O)N[C@@H](Cc2ccc(O)cc2)C(=O)O)NC(=O)CNC(=O)[C@H](CC(C)C)NC(=O)CNC(=O)[C@H](CO)NC(=O)[C@H](CCC(N)=O)NC(=O)[C@H](C)NC(=O)CNC1=O [ANP, atrial natriuretic peptide]",isoproterenol-stimulated contractility in intact heart,[1],had no effect on the ISO response in the intact heart
same,whole myocardial cGMP,[2],marked rise in myocardial cGMP
O=c1onc2cnc3ccccc3n12 [ODQ],blunting of ISO response by sildenafil when sGC is inhibited,[3],prevented
CN1CC(=O)N2[C@H](c3ccc4c(c3)OCO4)c3[nH]c4ccccc4c3C[C@@H]2C1=O [tadalafil],time of peak plasma concentration post-dose,"[4]; in vivo, po",two
same,apparent oral clearance (CL/F),[4],2.48 L/h
same,mean elimination half-life,[4],about 17.5 h
same,enhancement of PKG-1 activity,"[5]; basal conditions, inhibitor alone",~10%
same,rise in PKG-1 activity,[5]; [13],50% and 70%
same,rise in PKG-1 activity over ISO alone,[5]; [13],30%
same,proportion of total cGMP-esterase activity attributable to PDE5,[6]; 3 week TAC hearts,~60%
same,percent of total cGMP-esterase activity blocked by co-incubation,[6]; sham control hearts (baseline),approximately 30%
"CCCc1nn(C)c2c(NCc3ccc(OC)c(Cl)c3)nc(COCC(=O)O)nc12 [EMD 360527, [7-(3-Chloro-4-methoxy-benzylamino)-1-methyl-3-propyl-1H-pyrazolo[4,3-d]pyrimidin-5-ylmethoxy]-acetic acid]",IC50,[7],~10 nM
same,total myocardial cGMP,"[2]; TAC hearts, chronic co-treatment",slight decline
same,whole myocardial cGMP,[2],negligible effect
same,development of cardiac hypertrophy,[8],markedly inhibited the development of cardiac hypertrophy
same,cardiac function by pressure-volume analysis,[9],near identical physiologic results
same,TAC-induced hypertrophy and chamber remodeling,[10],yielded identical findings
same,TAC-induced hypertrophy and chamber remodeling,[10]; listed as EMD360527,prevented the development of both cardiac hypertrophy and accompanying chamber dilation and remodeling
same,IC50,[11],1000 nM
same,fetal gene expression,[12],reversed the TAC-induced rise in fetal gene expression
